Laboratory results taken from the supplement of paper PMC11451515.

Columns and labels:
Conditions in all cases: 48 h
[1] = test system: SEM cells; assay: AUC of viability dose-response curve (% viability x log10 dose units); higher = less sensitive
Outline: (§1)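 Seeding of medium-adapted leukemia cells was at 500 or 1000 cells/well in 1536-well plates, followed by 48 h at 37°C with library compounds in DMSO at 11 threefold doses from 47 μM to 0.79 nM. CellTiter-Glo One luminescence was normalised per plate to DMSO and cell-free wells and fitted as a four-parameter log-logistic function of log10 dose. Area under the curve was integrated by trapezoidal rule, with curves exceeding full viability scaled and curves failing quality control removed.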

[2] = test system: NOMO1; assay: as above
Outline: as §1

[3] = test system: P12-Ichikawa; assay: as above
Outline: as §1

[4] = test system: SEM cells; assay: cell viability relative to DMSO control; higher = less cytotoxic
Outline: (§2)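 NOMO1, SEM and P12-Ichikawa leukemia cells spent at least four passages adapting to each medium before use. They were seeded at 500 cells/well (NOMO1, SEM) or 1000 cells/well (P12-Ichikawa) in 5 μl in 1536-well plates and pin-dosed with library compounds in DMSO at 11 threefold steps from 47 μM down to 0.79 nM. After 48 h at 37°C, CellTiter-Glo One luminescence was read. Viability is reported as a percentage of the DMSO wells on each plate, with cell-free wells as background.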

[5] = test system: NOMO1; assay: as above
Outline: as §2

[6] = test system: P12-Ichikawa; assay: as above
Outline: as §2

CO/C1=C/C(C)=C\[C@@H](C)[C@@H](O)[C@@H](C)C/C(C)=C\C=C/[C@H](OC)[C@@H]([C@@H](C)[C@@H](O)[C@H](C)[C@@]2(O)C[C@@H](O)[C@H](C)[C@@H](C(C)C)O2)OC1=O
AUC of viability dose-response curve
Conditions	[1]	[2]	[3]
HPLM + 10% dialyzed FBS	213	208	291
RPMI 5 mM glucose + 10% FBS	211	229	263
RPMI 5 mM glucose + 10% dialyzed FBS	206	218	225

cell viability [%]
Conditions	[4]	[5]	[6]
HPLM + 10% dialyzed FBS, 0.000781 µM	91	79.5	88.2
HPLM + 10% dialyzed FBS, 0.00234 µM	74.8	97.1	99.5
HPLM + 10% dialyzed FBS, 0.00702 µM	91	91.8	91.5
HPLM + 10% dialyzed FBS, 0.0211 µM	48.6	90.6	96.3
HPLM + 10% dialyzed FBS, 0.0632 µM	28.7	58.8	81.7
HPLM + 10% dialyzed FBS, 0.19 µM	27	12.1	39.5
HPLM + 10% dialyzed FBS, 0.569 µM	27	12.7	34.8
HPLM + 10% dialyzed FBS, 1.71 µM	25.2	11.1	34.8
HPLM + 10% dialyzed FBS, 5.12 µM	32	12.6	37.5
HPLM + 10% dialyzed FBS, 15.4 µM	29	10.5	36.8
HPLM + 10% dialyzed FBS, 46.1 µM	29.7	9.72	33
RPMI 5 mM glucose + 10% FBS, 0.000781 µM	80.9	105	89
RPMI 5 mM glucose + 10% FBS, 0.00234 µM	75	95.9	96.6
RPMI 5 mM glucose + 10% FBS, 0.00702 µM	88.1	107	99.1
RPMI 5 mM glucose + 10% FBS, 0.0211 µM	46.8	82.3	88.6
RPMI 5 mM glucose + 10% FBS, 0.0632 µM	29.2	88.7	70.1
RPMI 5 mM glucose + 10% FBS, 0.19 µM	26.2	12.5	37.8
RPMI 5 mM glucose + 10% FBS, 0.569 µM	24.6	9.12	29.4
RPMI 5 mM glucose + 10% FBS, 1.71 µM	29.9	7.87	27.9
RPMI 5 mM glucose + 10% FBS, 5.12 µM	31.8	9.62	26.4
RPMI 5 mM glucose + 10% FBS, 15.4 µM	32.8	8.77	25.4
RPMI 5 mM glucose + 10% FBS, 46.1 µM	31.8	7.13	22.1
RPMI 5 mM glucose + 10% dialyzed FBS, 0.000781 µM	81.3	99.8	82.4
RPMI 5 mM glucose + 10% dialyzed FBS, 0.00234 µM	79.9	103	88.3
RPMI 5 mM glucose + 10% dialyzed FBS, 0.00702 µM	87.8	104	88.3
RPMI 5 mM glucose + 10% dialyzed FBS, 0.0211 µM	38.1	83	75.2
RPMI 5 mM glucose + 10% dialyzed FBS, 0.0632 µM	27.3	73.7	60.7
RPMI 5 mM glucose + 10% dialyzed FBS, 0.19 µM	27.8	8.37	29.9
RPMI 5 mM glucose + 10% dialyzed FBS, 0.569 µM	29.6	8.28	19.9
RPMI 5 mM glucose + 10% dialyzed FBS, 1.71 µM	30.1	8.09	21.3
RPMI 5 mM glucose + 10% dialyzed FBS, 5.12 µM	26.2	7.93	19.4
RPMI 5 mM glucose + 10% dialyzed FBS, 15.4 µM	29.7	6.37	20
RPMI 5 mM glucose + 10% dialyzed FBS, 46.1 µM	30.3	6.62	18

Cc1cc(Nc2cc(CN3CCOCC3)c3nc(C)c(Cc4ccc(Cl)cc4F)n3n2)[nH]n1
AUC of viability dose-response curve
Conditions	[1]	[2]	[3]
HPLM + 10% dialyzed FBS	342	429	436
RPMI 5 mM glucose + 10% FBS	317	424	428
RPMI 5 mM glucose + 10% dialyzed FBS	310	422	439

cell viability [%]
Conditions	[4]	[5]	[6]
HPLM + 10% dialyzed FBS, 0.000781 µM	119	114	112
HPLM + 10% dialyzed FBS, 0.00234 µM	116	121	105
HPLM + 10% dialyzed FBS, 0.00702 µM	113	130	119
HPLM + 10% dialyzed FBS, 0.0211 µM	108	114	116
HPLM + 10% dialyzed FBS, 0.0632 µM	116	137	109
HPLM + 10% dialyzed FBS, 0.19 µM	105	115	111
HPLM + 10% dialyzed FBS, 0.569 µM	74.6	101	114
HPLM + 10% dialyzed FBS, 1.71 µM	60.5	110	104
HPLM + 10% dialyzed FBS, 5.12 µM	51.4	99.7	96.5
HPLM + 10% dialyzed FBS, 15.4 µM	22.9	53.5	34.8
HPLM + 10% dialyzed FBS, 46.1 µM	21.4	48.3	78.4
RPMI 5 mM glucose + 10% FBS, 0.000781 µM	113	103	120
RPMI 5 mM glucose + 10% FBS, 0.00234 µM	107	98.2	114
RPMI 5 mM glucose + 10% FBS, 0.00702 µM	114	103	117
RPMI 5 mM glucose + 10% FBS, 0.0211 µM	109	111	117
RPMI 5 mM glucose + 10% FBS, 0.0632 µM	108	95.4	110
RPMI 5 mM glucose + 10% FBS, 0.19 µM	83.2	114	116
RPMI 5 mM glucose + 10% FBS, 0.569 µM	61.6	94	96.2
RPMI 5 mM glucose + 10% FBS, 1.71 µM	58.8	94.7	109
RPMI 5 mM glucose + 10% FBS, 5.12 µM	49.4	91.7	86.6
RPMI 5 mM glucose + 10% FBS, 15.4 µM	14.8	36.7	48.1
RPMI 5 mM glucose + 10% FBS, 46.1 µM	6.83	28.2	56.5
RPMI 5 mM glucose + 10% dialyzed FBS, 0.000781 µM	109	102	106
RPMI 5 mM glucose + 10% dialyzed FBS, 0.00234 µM	129	111	101
RPMI 5 mM glucose + 10% dialyzed FBS, 0.00702 µM	122	119	115
RPMI 5 mM glucose + 10% dialyzed FBS, 0.0211 µM	92.4	115	114
RPMI 5 mM glucose + 10% dialyzed FBS, 0.0632 µM	106	115	104
RPMI 5 mM glucose + 10% dialyzed FBS, 0.19 µM	95.2	106	111
RPMI 5 mM glucose + 10% dialyzed FBS, 0.569 µM	66.1	109	99.7
RPMI 5 mM glucose + 10% dialyzed FBS, 1.71 µM	52.7	97.3	104
RPMI 5 mM glucose + 10% dialyzed FBS, 5.12 µM	40.9	92	95.8
RPMI 5 mM glucose + 10% dialyzed FBS, 15.4 µM	11.6	45	51.5
RPMI 5 mM glucose + 10% dialyzed FBS, 46.1 µM	9.11	34.3	62.7
